Drawing on ChEMBL document CHEMBL4414641, “Chemical Constituents of Anneslea fragrans and Their Antiausterity Activity against the PANC-1 Human Pancreatic Cancer Cell Line” (J Nat Prod, 2019), this text covers PC50, Activity and inhibition for 18 molecules.

The subject of data set [1] is PANC-1. The data set can be described thus: Anti-austerity activity against nutrient-deprived human PANC1 cells assessed as cell death incubated for 24 hrs by WST-8 assay. Type of data set: functional.
Data set [2] has as its system PANC-1. Briefly: Cytotoxicity against nutrient-rich DMEM cultured human PANC1 cells at PC50 incubated for 24 hrs by WST-8 assay. Type of data set: cell-based. As to conditions: panc-1, 24 h.
The test system of data set [3] is PANC-1. Briefly: Inhibition of cell migration in human PANC1 cells assessed as closed wound area at 100 uM cultured in nutrient rich DMEM medium measured within 24 hrs by quantitative real-time imaging based wound healing assay (reference value: 100%). Type of data set: functional. Further details: scale not given: the % may be the effect or the level left.
The subject of data set [4] is PANC-1. The data set can be described thus: Inhibition of cell migration in human PANC1 cells assessed as open wound area at 100 uM cultured in nutrient rich DMEM medium measured after 24 hrs by quantitative real-time imaging based wound healing assay relative to control. The class given is functional. Further details: scale not given: the % may be the effect or the level left.

For data set [5], the system named is PANC-1. Briefly: Inhibition of cell migration in human PANC1 cells assessed as open wound area at 100 uM cultured in nutrient rich DMEM medium measured after 48 hrs by quantitative real-time imaging based wound healing assay (reference value: 12%). Further details: scale not given: the % may be the effect or the level left. Type of data set: functional.
Data set [6] relates to PANC-1. Briefly: Inhibition of cell migration in human PANC1 cells assessed as open wound area at 100 uM cultured in nutrient rich DMEM medium measured after 72 hrs by quantitative real-time imaging based wound healing assay (reference value: 5%). Type of data set: functional. Further details: scale not given: the % may be the effect or the level left.
The test system of data set [7] is PANC-1. Briefly: Inhibition of cell migration in human PANC1 cells at 100 uM cultured in nutrient rich DMEM medium measured every 15 mins for 72 hrs by quantitative real-time imaging analysis. Type of data set: functional, cell-based.
Data set [8] concerns PANC-1. Briefly: Inhibition of cell migration in human PANC1 cells assessed as decrease in velocity of cell migration at 100 uM cultured in nutrient rich DMEM medium measured every 15 mins for 72 hrs by quantitative real-time imaging analysis. Type of data set: functional, cell-based.

SMILES strings stand for the structures. Calls of active or inactive are those of the source. The rule behind the calls is not given here.

As to `O=C(CCc1ccc(O)cc1)c1ccc(O)cc1O[C@@H]1O[C@H](CO)[C@@H](O)[C@H](O)[C@H]1O`, the PC50 with PANC-1 [1] was more than 100 µM. The Activity entry in the data set with PANC-1 [2] is given as “Non-Toxic”.

Regarding `O=C(CCc1ccc(O)cc1)c1ccc(O[C@@H]2O[C@H](CO)[C@@H](O)[C@H](O)[C@H]2O)cc1O` [CONFUSOSIDE], the PC50 in the data set on PANC-1 [1] came to 82.6 µM. For the same molecule, the Activity entry with PANC-1 [2] was “Non-Toxic”.

Turning to `O=c1c(O)c(-c2ccc(O)c(O)c2)oc2cc(O)cc(O)c12` [QUERCETIN], the PC50 in the data set on PANC-1 [1] was 21.8 µM. Also, in the data set with PANC-1 [2], the Activity result is listed as “Non-Toxic”.

On to `O=c1c(O[C@@H]2O[C@H](CO)[C@@H](O)[C@H](O)[C@H]2O)c(-c2ccc(O)c(O)c2)oc2cc(O)cc(O)c12` [ISOQUERCETIN], for which, in the data set on PANC-1 [1], the PC50 was more than 100 µM. For the same molecule, the Activity result in the data set on PANC-1 [2] is listed as “Non-Toxic”.

As to `CC[C@H](/C=C/[C@@H](C)[C@H]1CC[C@H]2C3=CC[C@H]4C[C@@H](O)CC[C@]4(C)[C@H]3CC[C@]12C)C(C)C`, in the data set with PANC-1 [1], the PC50 was found to be 58.1 µM. The Activity entry in the data set with PANC-1 [2] is on record as “Non-Toxic”.

For `O=C(/C(O)=C/c1ccc(O)c(O)c1)c1ccc(O[C@H]2COC(=O)[C@@H]2O)cc1O`, the PC50 in the data set on PANC-1 [1] was more than 100 µM. Moreover, in the data set on PANC-1 [2], the Activity result is given as “Non-Toxic”.

Regarding `C[C@@H]1O[C@@H](Oc2c(-c3ccc(O)cc3)oc3cc(O)cc(O)c3c2=O)[C@H](O)[C@H](O)[C@H]1O` [AFZELIN], the PC50 in the data set on PANC-1 [1] is 8.9 µM. Moreover, the Activity result in the data set with PANC-1 [2] is given as “Non-Toxic”.

Take `CC1(C)OC[C@H]2O[C@@H](Oc3ccc(C(=O)CCc4ccc(O)cc4)c(O)c3)[C@H](O)[C@@H](O)[C@@H]2O1`: in the data set with PANC-1 [1], the PC50 came out at 60.9 µM. The Activity in the data set with PANC-1 [3] is given as 38%; in the data set with PANC-1 [4], 93%; in the data set on PANC-1 [5], 81%; in the data set with PANC-1 [6], 72%; in the data set with PANC-1 [2], “Non-Toxic”. The inhibition entry in the data set with PANC-1 [7] and in the data set with PANC-1 [8] was “Active” each time.

Take `COc1cc2oc(=O)ccc2cc1O` [ISOSCOPOLETIN]: in the data set with PANC-1 [1], the PC50 was found to be 26.9 µM. For the same molecule, the Activity result in the data set on PANC-1 [2] is on record as “Non-Toxic”.

`Oc1cc(O)c2c(c1)O[C@H](c1ccc(O)c(O)c1)[C@H](O)C2` [(-)-EPICATECHIN]: the PC50 in the data set on PANC-1 [1] was determined as 14.7 µM. Further, in the data set on PANC-1 [2], the Activity entry was “Non-Toxic”.

Regarding `COc1cc(C[C@H]2C(=O)OC[C@@H]2Cc2ccc(OC)c(OC)c2)ccc1O` [ARCTIGENIN], in the data set on PANC-1 [1], the PC50 is 0.7 µM. In addition, in the data set with PANC-1 [2], the Activity result is recorded as “Non-Toxic”.

Consider `O=C(CCc1ccc(O)c(O)c1)c1ccc(O[C@@H]2O[C@H](CO)[C@@H](O)[C@H](O)[C@H]2O)cc1O`, for which, in the data set with PANC-1 [1], the PC50 was determined as 10.4 µM. Besides, the Activity entry with PANC-1 [2] is “Non-Toxic”.

As for `O=C(/C=C/c1ccc(O)c(O)c1)c1ccc(O)cc1O` [BUTEIN], in the data set on PANC-1 [1], the PC50 is 67 µM. In addition, in the data set on PANC-1 [2], the Activity result is listed as “Non-Toxic”.

With `C[C@@H]1O[C@@H](OC[C@H]2O[C@@H](Oc3c(-c4ccc(O)cc4)oc4cc(O)cc(O)c4c3=O)[C@H](O)[C@@H](O)[C@@H]2O)[C@H](O)[C@H](O)[C@H]1O` [NICOTIFLOROSIDE], the PC50 in the data set with PANC-1 [1] came to 67.1 µM. Besides, the Activity result in the data set with PANC-1 [2] is “Non-Toxic”.

`C=C(C)[C@@H]1CC[C@]2(CO)CC[C@]3(C)[C@H](CC[C@@H]4[C@@]5(C)CC[C@H](O)C(C)(C)[C@@H]5CC[C@]43C)[C@@H]12` [BETULIN]: in the data set with PANC-1 [1], the PC50 was 8.4 µM. Besides, the Activity entry in the data set with PANC-1 [2] is reported as “Non-Toxic”.

On to `O=C(CCc1ccc(O)c(O)c1)c1ccc(O)cc1O`, for which the Activity entry with PANC-1 [2] was “Non-Toxic”.

In the case of `C[C@@H]1O[C@@H](O[C@H]2[C@H](Oc3c(-c4ccc(O)cc4)oc4cc(O)cc(O)c4c3=O)O[C@H](CO)[C@@H](O)[C@@H]2O)[C@H](O)[C@H](O)[C@H]1O`, the PC50 in the data set on PANC-1 [1] amounted to 17.4 µM. Besides, the Activity entry with PANC-1 [2] is given as “Non-Toxic”.

With `C=C(C)[C@@H]1CC[C@]2(C)CC[C@]3(C)[C@H](CC[C@@H]4[C@@]5(C)CC[C@H](O)C(C)(C)[C@@H]5CC[C@]43C)[C@@H]12` [LUPEOL], the PC50 in the data set with PANC-1 [1] stood at 38.6 µM. In addition, the Activity entry in the data set with PANC-1 [2] was “Non-Toxic”.
